# Test results as given in ChEMBL document CHEMBL2034855, “(18)F-labeled phenyldiazenyl benzothiazole for in vivo imaging of neurofibrillary tangles in Alzheimer's disease brains” (ACS Med Chem Lett, 2012).
# Active and inactive are the calls of the source. No cut-off for these calls is given here.
# Tests used:
# [1] = species: Homo sapiens; assay: Selectivity ratio Ki for amyloid beta (1 to 42) aggregates to Ki for recombinant human tau
# [2] = biological target: T1, Microtubule-associated protein tau (Homo sapiens, UniProt P10636); assay: Displacement of Thioflavin S from recombinant human tau expressed in Escherichia coli after 30 mins by fluorescence assay
# T1 sequence (P10636 whole entry): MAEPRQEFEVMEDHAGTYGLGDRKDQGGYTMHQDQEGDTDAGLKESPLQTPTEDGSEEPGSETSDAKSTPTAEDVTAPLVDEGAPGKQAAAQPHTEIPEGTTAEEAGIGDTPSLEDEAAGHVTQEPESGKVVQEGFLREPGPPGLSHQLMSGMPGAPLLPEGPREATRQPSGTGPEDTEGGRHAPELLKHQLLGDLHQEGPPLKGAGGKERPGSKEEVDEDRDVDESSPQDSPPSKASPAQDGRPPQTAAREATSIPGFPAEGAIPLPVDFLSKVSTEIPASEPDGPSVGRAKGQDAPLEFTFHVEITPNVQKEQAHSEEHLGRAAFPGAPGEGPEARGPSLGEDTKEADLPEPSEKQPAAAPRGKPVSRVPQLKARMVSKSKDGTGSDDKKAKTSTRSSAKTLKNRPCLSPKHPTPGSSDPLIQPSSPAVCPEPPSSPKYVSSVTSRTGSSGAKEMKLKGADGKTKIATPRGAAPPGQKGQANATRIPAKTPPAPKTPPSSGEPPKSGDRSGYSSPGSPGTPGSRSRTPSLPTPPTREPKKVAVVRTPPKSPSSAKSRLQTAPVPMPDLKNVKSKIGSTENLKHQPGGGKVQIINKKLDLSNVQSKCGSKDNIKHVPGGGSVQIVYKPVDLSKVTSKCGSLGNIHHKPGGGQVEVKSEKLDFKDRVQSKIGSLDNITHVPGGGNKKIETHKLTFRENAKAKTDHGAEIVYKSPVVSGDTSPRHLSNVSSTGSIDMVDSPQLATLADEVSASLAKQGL
# [3] = tested on: Kidney; assay: Biodistribution in mouse kidney at 64.5 kBq, iv measured 30 mins post injection by gamma counting; assay type: ADME, organism-based; conditions: in vivo, 0.5 h
# [4] = tested on: Liver; assay: Biodistribution in mouse liver at 64.5 kBq, iv measured 60 mins post injection by gamma counting; assay type: ADME, organism-based; conditions: in vivo, 1 h
# [5] = tested on: Spleen; assay: Biodistribution in mouse spleen at 64.5 kBq, iv measured 60 mins post injection by gamma counting; assay type: ADME, organism-based; conditions: in vivo, 1 h
# [6] = tested on: Heart; assay: Biodistribution in mouse heart at 64.5 kBq, iv measured 2 mins post injection by gamma counting; assay type: ADME, organism-based; conditions: in vivo
# [7] = tested on: Stomach; assay: Biodistribution in mouse stomach at 64.5 kBq, iv measured 60 mins post injection by gamma counting; assay type: ADME, organism-based; conditions: in vivo, 1 h
# [8] = tested on: Kidney; assay: Biodistribution in mouse kidney at 64.5 kBq, iv measured 10 mins post injection by gamma counting; assay type: ADME, organism-based; conditions: in vivo
# [9] = tested on: Blood; assay: Biodistribution in mouse blood at 64.5 kBq, iv measured 10 mins post injection by gamma counting; assay type: ADME, organism-based; conditions: in vivo
# [10] = tested on: Bone; assay: Biodistribution in mouse bone at 64.5 kBq, iv measured 60 mins post injection by gamma counting; assay type: ADME, organism-based, Bone element; conditions: in vivo, 1 h
# [11] = tested on: Pancreas; assay: Biodistribution in mouse pancreas at 64.5 kBq, iv measured 60 mins post injection by gamma counting; assay type: ADME, organism-based; conditions: in vivo, 1 h
# [12] = tested on: Heart; assay: Biodistribution in mouse heart at 64.5 kBq, iv measured 30 mins post injection by gamma counting; assay type: ADME, organism-based; conditions: in vivo, 0.5 h
# [13] = tested on: Liver; assay: Biodistribution in mouse liver at 64.5 kBq, iv measured 2 mins post injection by gamma counting; assay type: ADME, organism-based; conditions: in vivo
# [14] = tested on: Stomach; assay: Biodistribution in mouse stomach at 64.5 kBq, iv measured 10 mins post injection by gamma counting; assay type: ADME, organism-based; conditions: in vivo
# [15] = tested on: Intestine; assay: Biodistribution in mouse intestine at 64.5 kBq, iv measured 30 mins post injection by gamma counting; assay type: ADME, organism-based; conditions: in vivo, 0.5 h
# [16] = tested on: Brain; assay: Biodistribution in mouse brain at 64.5 kBq, iv measured 60 mins post injection by gamma counting; assay type: ADME, organism-based; conditions: in vivo, 1 h
# [17] = tested on: Bone; assay: Biodistribution in mouse bone at 64.5 kBq, iv measured 2 mins post injection by gamma counting; assay type: ADME, organism-based, Bone element; conditions: in vivo
# [18] = tested on: Kidney; assay: Biodistribution in mouse kidney at 64.5 kBq, iv measured 2 mins post injection by gamma counting; assay type: ADME, organism-based; conditions: in vivo
# [19] = tested on: Lung; assay: Biodistribution in mouse lung at 64.5 kBq, iv measured 30 mins post injection by gamma counting; assay type: ADME, organism-based; conditions: in vivo, 0.5 h
# [20] = tested on: Heart; assay: Biodistribution in mouse heart at 64.5 kBq, iv measured 10 mins post injection by gamma counting; assay type: ADME, organism-based; conditions: in vivo
# [21] = tested on: Intestine; assay: Biodistribution in mouse intestine at 64.5 kBq, iv measured 60 mins post injection by gamma counting; assay type: ADME, organism-based; conditions: in vivo, 1 h
# [22] = tested on: Spleen; assay: Biodistribution in mouse spleen at 64.5 kBq, iv measured 10 mins post injection by gamma counting; assay type: ADME, organism-based; conditions: in vivo
# [23] = biological target: T1, Microtubule-associated protein tau; assay: Binding affinity to recombinant human tau expressed in Escherichia coli after 30 mins by fluorescence assay
# [24] = tested on: Pancreas; assay: Biodistribution in mouse pancreas at 64.5 kBq, iv measured 10 mins post injection by gamma counting; assay type: ADME, organism-based; conditions: in vivo
# [25] = tested on: Stomach; assay: Biodistribution in mouse stomach at 64.5 kBq, iv measured 2 mins post injection by gamma counting; assay type: ADME, organism-based; conditions: in vivo
# [26] = tested on: Intestine; assay: Biodistribution in mouse intestine at 64.5 kBq, iv measured 2 mins post injection by gamma counting; assay type: ADME, organism-based; conditions: in vivo
# [27] = tested on: Spleen; assay: Biodistribution in mouse spleen at 64.5 kBq, iv measured 2 mins post injection by gamma counting; assay type: ADME, organism-based; conditions: in vivo
# [28] = Octanol-phosphate buffer partition coefficient, log P of the compound at 0.37 MBq after 10 mins by gamma counting; assay type: physicochemical
# [29] = tested on: Pancreas; assay: Biodistribution in mouse pancreas at 64.5 kBq, iv measured 30 mins post injection by gamma counting; assay type: ADME, organism-based; conditions: in vivo, 0.5 h
# [30] = tested on: Bone; assay: Biodistribution in mouse bone at 64.5 kBq, iv measured 30 mins post injection by gamma counting; assay type: ADME, organism-based, Bone element; conditions: in vivo, 0.5 h
# [31] = tested on: Brain; assay: Biodistribution in mouse brain at 64.5 kBq, iv measured 30 mins post injection by gamma counting; assay type: ADME, organism-based; conditions: in vivo, 0.5 h
# [32] = tested on: Intestine; assay: Biodistribution in mouse intestine at 64.5 kBq, iv measured 10 mins post injection by gamma counting; assay type: ADME, organism-based; conditions: in vivo
# [33] = tested on: Spleen; assay: Biodistribution in mouse spleen at 64.5 kBq, iv measured 30 mins post injection by gamma counting; assay type: ADME, organism-based; conditions: in vivo, 0.5 h
# [34] = tested on: Kidney; assay: Biodistribution in mouse kidney at 64.5 kBq, iv measured 60 mins post injection by gamma counting; assay type: ADME, organism-based; conditions: in vivo, 1 h
# [35] = tested on: Blood; assay: Biodistribution in mouse blood at 64.5 kBq, iv measured 60 mins post injection by gamma counting; assay type: ADME, organism-based; conditions: in vivo, 1 h
# [36] = tested on: Blood; assay: Biodistribution in mouse blood at 64.5 kBq, iv measured 30 mins post injection by gamma counting; assay type: ADME, organism-based; conditions: in vivo, 0.5 h
# [37] = tested on: Lung; assay: Biodistribution in mouse lung at 64.5 kBq, iv measured 2 mins post injection by gamma counting; assay type: ADME, organism-based; conditions: in vivo
# [38] = tested on: Liver; assay: Biodistribution in mouse liver at 64.5 kBq, iv measured 10 mins post injection by gamma counting; assay type: ADME, organism-based; conditions: in vivo
# [39] = tested on: Liver; assay: Biodistribution in mouse liver at 64.5 kBq, iv measured 30 mins post injection by gamma counting; assay type: ADME, organism-based; conditions: in vivo, 0.5 h
# [40] = tested on: Heart; assay: Biodistribution in mouse heart at 64.5 kBq, iv measured 60 mins post injection by gamma counting; assay type: ADME, organism-based; conditions: in vivo, 1 h
# [41] = tested on: Lung; assay: Biodistribution in mouse lung at 64.5 kBq, iv measured 60 mins post injection by gamma counting; assay type: ADME, organism-based; conditions: in vivo, 1 h
# [42] = tested on: Stomach; assay: Biodistribution in mouse stomach at 64.5 kBq, iv measured 30 mins post injection by gamma counting; assay type: ADME, organism-based; conditions: in vivo, 0.5 h
# [43] = tested on: Pancreas; assay: Biodistribution in mouse pancreas at 64.5 kBq, iv measured 2 mins post injection by gamma counting; assay type: ADME, organism-based; conditions: in vivo
# [44] = tested on: Lung; assay: Biodistribution in mouse lung at 64.5 kBq, iv measured 10 mins post injection by gamma counting; assay type: ADME, organism-based; conditions: in vivo
# [45] = tested on: Brain; assay: Biodistribution in mouse brain at 64.5 kBq, iv measured 2 mins post injection by gamma counting; assay type: ADME, organism-based; conditions: in vivo
# [46] = tested on: Brain; assay: Drug uptake in normal human brain at 92.5 kBq after 2 hrs by […]; assay type: ADME, tissue-based
# [47] = tested on: Bone; assay: Biodistribution in mouse bone at 64.5 kBq, iv measured 10 mins post injection by gamma counting; assay type: ADME, organism-based, Bone element; conditions: in vivo
# [48] = tested on: Brain; assay: Biodistribution in mouse brain at 64.5 kBq, iv measured 10 mins post injection by gamma counting; assay type: ADME, organism-based; conditions: in vivo
# [49] = Binding affinity to amyloid beta (1 to 42) aggregates after 30 mins by fluorescence assay
# [50] = tested on: Blood; assay: Biodistribution in mouse blood at 64.5 kBq, iv measured 2 mins post injection by gamma counting; assay type: ADME, organism-based; conditions: in vivo
# [51] = biological target: T1, Microtubule-associated protein tau; assay: Binding affinity to tau protein in human alzheimer's disease patient brain white matter at 92.5 kBq after 2 hrs by immunohistological staining; assay type: tissue-based; conditions: tested as the 18F-labelled form
# [52] = Displacement of Thioflavin S from amyloid beta (1 to 42) aggregates after 30 mins by fluorescence assay
# [53] = species: Homo sapiens; assay: Binding affinity to neurofibrillary tangles in human alzheimer's disease patient brain at 92.5 kBq after 30 mins by immunohistological staining
# [54] = biological target: Amyloid-beta precursor protein (Homo sapiens) (UniProt P05067); assay: Binding affinity to amyloid beta (1 to 42) aggregates in human alzheimer's disease patient brain white matter at 92.5 kBq after 2 hrs by immunohistological staining; assay type: tissue-based; conditions: tested as the 18F-labelled form
# Sequence of Amyloid-beta precursor protein (Homo sapiens) (P05067 whole entry): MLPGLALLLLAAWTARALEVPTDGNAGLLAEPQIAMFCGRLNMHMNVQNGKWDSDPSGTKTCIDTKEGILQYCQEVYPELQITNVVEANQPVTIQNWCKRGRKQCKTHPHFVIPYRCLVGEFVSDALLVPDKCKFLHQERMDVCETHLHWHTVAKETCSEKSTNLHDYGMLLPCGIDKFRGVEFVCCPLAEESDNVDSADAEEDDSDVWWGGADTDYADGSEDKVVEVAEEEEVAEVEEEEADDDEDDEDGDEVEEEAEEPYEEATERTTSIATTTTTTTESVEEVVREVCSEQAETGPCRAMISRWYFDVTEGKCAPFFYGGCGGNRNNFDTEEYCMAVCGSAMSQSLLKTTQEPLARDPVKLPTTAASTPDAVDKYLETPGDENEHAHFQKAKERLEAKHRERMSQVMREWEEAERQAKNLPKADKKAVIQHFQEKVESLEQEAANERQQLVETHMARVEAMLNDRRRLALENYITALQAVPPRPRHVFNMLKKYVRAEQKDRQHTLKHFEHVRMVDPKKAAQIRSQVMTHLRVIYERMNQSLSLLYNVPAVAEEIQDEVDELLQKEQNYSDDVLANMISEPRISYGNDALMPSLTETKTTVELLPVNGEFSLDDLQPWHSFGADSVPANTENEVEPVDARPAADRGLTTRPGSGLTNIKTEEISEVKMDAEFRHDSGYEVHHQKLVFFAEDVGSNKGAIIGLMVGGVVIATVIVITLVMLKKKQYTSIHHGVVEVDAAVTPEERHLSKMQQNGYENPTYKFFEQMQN
# [55] = biological target: T1, Microtubule-associated protein tau; assay: Binding affinity to recombinant human tau expressed in Escherichia coli assessed per nanomolar of protein after 30 mins by fluorescence assay; conditions: tested as the 18F-labelled form
# [56] = species: Homo sapiens; assay: Binding affinity to senile plaques in human alzheimer's disease patient brain at 92.5 kBq after 30 mins by immunohistological staining
# [57] = Binding affinity to amyloid beta (1 to 42) aggregates assessed per nanomolar of protein after 30 mins by fluorescence assay; conditions: tested as the 18F-labelled form
smiles,measurement,setting,value
CN(C)c1ccc(/N=N/c2nc3ccc(I)cc3s2)cc1,Ratio Ki,[1],17.2
same,Ki,[2],0.48 nM
CN(C)c1ccc(/N=N/c2nc3ccc(OCCOCCOCC[18F])cc3s2)cc1,Drug uptake,[3],5.08 % ID/g
same,Drug uptake,[4],9.32 % ID/g
same,Drug uptake,[5],2.14 % ID/g
same,Drug uptake,[6],7.45 % ID/g
same,Drug uptake,[7],3.37 %ID
same,Drug uptake,[8],7.67 % ID/g
same,Drug uptake,[9],1.83 % ID/g
same,Drug uptake,[10],1.92 % ID/g
same,Drug uptake,[11],2.18 % ID/g
same,Drug uptake,[12],3.05 % ID/g
same,Drug uptake,[13],20.2 % ID/g
same,Drug uptake,[14],1.42 %ID
same,Drug uptake,[15],14.4 % ID/g
same,Drug uptake,[16],2.53 % ID/g
same,Drug uptake,[17],1.88 % ID/g
same,Drug uptake,[18],13.9 % ID/g
same,Drug uptake,[19],3.36 % ID/g
same,Drug uptake,[20],4.14 % ID/g
same,Drug uptake,[21],22.9 % ID/g
same,Drug uptake,[22],3.41 % ID/g
same,Kd,[23],44.8 nM
same,Drug uptake,[24],4.01 % ID/g
same,Drug uptake,[25],1.11 %ID
same,Drug uptake,[26],2.94 % ID/g
same,Drug uptake,[27],3.47 % ID/g
same,logP at 10 min,[28],2.05
same,Drug uptake,[29],2.87 % ID/g
same,Drug uptake,[30],1.82 % ID/g
same,Drug uptake,[31],3.47 % ID/g
same,Drug uptake,[32],4.99 % ID/g
same,Drug uptake,[33],2.71 % ID/g
same,Drug uptake,[34],4 % ID/g
same,Drug uptake,[35],2.68 % ID/g
same,Drug uptake,[36],2.19 % ID/g
same,Drug uptake,[37],13.5 % ID/g
same,Drug uptake,[38],19.3 % ID/g
same,Drug uptake,[39],13.1 % ID/g
same,Drug uptake,[40],2.62 % ID/g
same,Drug uptake,[41],3.59 % ID/g
same,Drug uptake,[42],2.69 %ID
same,Drug uptake,[43],5.41 % ID/g
same,Drug uptake,[44],4.37 % ID/g
same,Drug uptake,[45],4.28 % ID/g
same,Drug uptake,[46],Not Active
same,Drug uptake,[47],1.82 % ID/g
same,Drug uptake,[48],4.26 % ID/g
same,Kd,[49],45.4 nM
same,Drug uptake,[50],3.04 % ID/g
CN(C)c1ccc(/N=N/c2nc3ccc(OCCOCCOCCF)cc3s2)cc1,Activity,[51],Active
same,Ratio Ki,[1],1.54
same,IC50,[2],256 nM
same,Ki,[2],13 nM
same,IC50,[52],47.3 nM
same,Ki,[52],20 nM
same,Activity,[53],Active
same,Activity,[54],Active
same,Bmax,[55],45.8 pmol
same,Activity,[56],Active
same,Bmax,[57],38.9 pmol
CN(C)c1ccc(/N=N/c2nc3ccc([125I])cc3s2)cc1,Drug uptake,[16],2.89 % ID/g
same,logP at 10 min,[28],3.84
same,Drug uptake,[45],0.94 % ID/g
